Experimental data from patent US20230285347A1, “Preterm Labour with Prostaglandin E2 Receptor Agonists” (IMPERIAL COLLEGE INNOVATIONS LIMITED, priority 2020, published 2023).
Entries after “also recorded” stand apart in the source; their conditions may differ.

Experiments:
Assay type in all cases: cell-based
[1] = target: T1, EP2 (Homo sapiens, UniProt P43116); assay: Intracellular calcium in myometrial cells with/without oxytocin pre-treatment; conditions: OT pre-treatment 1 hour, 100 nM; butaprost 10 μM, AH13205 10 μM, PGN9856i 100 nM; FIG. 11
T1 construct: primary human myocytes cultured from term pregnant, non-labouring, myometrium; endogenous in cells; host or cells: primary human myometrial cells (myocytes) cultured from pregnant myometrium
Description: Intracellular calcium response in myometrial cells with/without OT pre-treatment (1 hour, 100 nM) stimulated with butaprost (10 μM), AH13205 (10 μM) or PGN9856i (100 nM). Data are the mean of the maximum fluorescence intensity for each cell measured normalised to background (F-FO). Shown as fold-change over butaprost response. One-way ANOVA with Dunnett's multiple comparison post-hoc test: ##p<0.01. One-sample t-test: *p<0.05.

[2] = target: T2, human FLAG-EP2 (Homo sapiens, UniProt P43116); assay: Intracellular Ca2+ release in HEK 293 cells stably expressing EP2 (Fluo-4, confocal; Gαq/11 readout); conditions: HEK 293 EP2 cells; butaprost 10 μM, AH13205 10 μM, PGN9856i 100 nM; vs vehicle; FIG. 3
T2 construct: FLAG; expressed in transfected cells
Description: To measure Gαq/11 activation, HEK 293 cells stably expressing human FLAG-EP2 were pre-labelled with a Ca2+ indicator dye and acutely stimulated with each ligand.
HEK 293 cells, prepared following the same methodology as outlined in Example 1, were seeded onto Mattek dishes with 14 mm by 1.5 mm glass coverslips. Cells were incubated with Fluo-4am Ca2+ indicator (ThermoFisher) as per manufacturer's instructions. […]. Time-series images were acquired using a Leica SP5 confocal microscope, Leica LAS AF image acquisition software and a 488 nm excitation laser. HEK cells were imaged using a 10× dry objective. EP2 agonists (butaprost 10 μM, AH13205 10 μM or PGN9856i 100 nM) were added following measurement of basal fluorescence. Raw files were analysed using Fiji Time series analyser plugin to find the maximal fluorescent intensity, which was then averaged across cells in each condition.
The maximal fluorescence intensity was measured by live confocal microscopy.

[3] = target: T2, human FLAG-EP2; assay: PGE2 release by ELISA in HEK 293 cells stably expressing EP2; conditions: HEK 293 EP2 cells; 6 hours; butaprost 10 μM, AH13205 10 μM, PGN9856i 100 nM; FIG. 4
Description: COX-2 is an inflammatory mediator that drives PGE2 production. The inventors had previously shown EP2-dependent COX-2 release to be downstream of Ca2+ release in primary human myometrium and that 6-hour agonist treatment is necessary for increasing COX-2 levels and PGE2 secretion (Kandola et al, 2014). HEK 293 cells stably expressing human FLAG-EP2 were stimulated for 6 hours with an EP2 agonist (butaprost 10 μM, AH13205 10 μM or PGN9856i 100 nM) or DMSO. 1 mL media was collected from COX-2 experiments and immediately frozen at −80 degrees Celsius. […]

[4] = target: T1, EP2; assay: PGE2 release by ELISA in primary myometrial cells; conditions: 6 hours, butaprost 10 μM, PGN9856i 100 nM, without OT, FIG. 7, FIG. 12
Source text: Tissue culture media collected and used for ELISA. Data shown as mean±SEM from at least 3 independent experiments. One-way ANOVA with Dunnet's multiple comparison post-hoc test: *p<0.05, **p<0.01. PGN9856i is unable to elicit PGE2 release in primary myometrial cells.
In the myometrium EP2 is an important regulator of parturition. To assess if PGN9856i, butaprost and AH13205 induce similar second messenger profiles in the myometrium as HEK 293 cells, primary human myocytes cultured from term pregnant, non-labouring, myometrium, were treated with each ligand and intracellular cAMP, calcium and PGE2 release was measured.
Myometrial tissue was acquired at St. Mary's hospital, Queen Charlotte and Chelsea hospital and Charing Cross hospital, London. Tissue was obtained from women provided with informed written consent with the approval from the Riverside Research Ethics Committee (RREC 3357, 1997-5089, 19/LO/1657) and experiments were carried out under the committee's guidelines and recommendations. […]
Myometrial cells were treated for 6-hours with EP2 agonist (butaprost 10 μM, AH13205 10 μM or PGN9856i 100 nM) or DMSO with/without 1-hour OT (100 nM) pre-treatment. […] Samples were defrosted at room temperature and vortexed before quantification of IL-6 concentrations via ELISA as per manufacturer's instructions (Enzo Lifesciences).

[5] = target: T1, EP2; assay: PGE2 release in myometrial cells with/without oxytocin pre-treatment; conditions: for effect of OT pre-treatment on ligand-induced PGE2 release: OT 1 hour, 100 nM, then ligand 6 hours, butaprost 10 μM, PGN9856i 100 nM, FIG. 12
Description: Myometrial cells stimulated with either DMSO, butaprost (10 μM), AH13205 (10 μM) or PGN9856i (100 nM) for 6 hours, with/without OT pre-treatment (1 hour, 100 nM). Tissue culture media collected and used for ELISA. PGE2 concentrations normalised to butaprost. Data shown as mean±SEM from at least 3 independent experiments. One-way ANOVA with Dunnett's multiple comparison post-hoc test. One-sample t-test: *p<0.05.
Myometrial cells stimulated with DMSO or PGN9856i (100 nM) for 6 hours, with/without OT pre-treatment (1 hour, 100 nM). Tissue culture media collected and used for ELISA. PGE2 concentrations normalised to vehicle. Data shown as mean±SEM from at least 3 independent experiments. Unpaired t-test: *p<0.05.
Myometrial cells were treated for 6-hours with EP2 agonist (butaprost 10 μM, AH13205 10 μM or PGN9856i 100 nM) or DMSO with/without 1-hour OT (100 nM) pre-treatment. 1 mL media was collected from COX-2 experiments and immediately frozen at −80 degrees Celsius. Samples were defrosted at room temperature and vortexed before quantification of IL-6 concentrations via ELISA as per manufacturer's instructions (Enzo Lifesciences).

T1 sequence (P43116 whole entry): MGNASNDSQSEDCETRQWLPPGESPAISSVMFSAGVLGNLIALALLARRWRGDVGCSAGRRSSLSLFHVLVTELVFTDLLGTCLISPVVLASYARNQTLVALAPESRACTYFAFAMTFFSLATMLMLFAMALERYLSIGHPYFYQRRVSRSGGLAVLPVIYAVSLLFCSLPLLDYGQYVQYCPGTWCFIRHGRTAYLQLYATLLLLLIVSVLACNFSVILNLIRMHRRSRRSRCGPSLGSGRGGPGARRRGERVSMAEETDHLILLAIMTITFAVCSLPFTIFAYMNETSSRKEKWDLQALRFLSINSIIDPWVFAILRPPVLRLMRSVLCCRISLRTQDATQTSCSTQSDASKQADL
T2 sequence (P43116 whole entry): as above

Row | Structure (SMILES) | calcium response with OT pre-treatment [1] | intracellular Ca2+ release (maximal fluorescence intensity) [2] | PGE2 levels [3] | PGE2 release [4] | effect of OT pre-treatment on ligand-induced PGE2 release [5] | effect on OT-mediated PGE2 release ([5]; myometrial cells treated with OT (100 nM, 1 hour), then PGN9856i 100 nM for 6 hours, FIG. 13)
1 | CC(C)OC(=O)COc1cccc(NC(=O)c2cc(-c3cccc(F)c3)ccc2F)c1 [PGN9856i, propan-2-yl 2-(3-{3′,4-difluoro-[1,1′-biphenyl]-3-amido}phenoxy)acetate] | unable to elicit a response | unable to elicit intracellular Ca2+ release | unable to increase PGE2 levels over basal levels | unable to activate; also recorded: unable to cause PGE2 release | unchanged by OT pre-treatment | significantly reduce OT-mediated PGE2 release
2 | CCCC1([C@H](O)C/C=C/[C@H]2[C@H](O)CC(=O)[C@@H]2CCCCCCC(=O)OC)CCC1 [butaprost] | significantly enhance the calcium response | enhanced Ca2+ significantly above vehicle | efficacious activators of the pathway | significantly enhanced PGE2 release | significantly increased by OT | –
